Laboratory results as given in patent US8394967B2, “Antioxidant inflammation modulators: C-17 homologated oleanolic acid derivatives” (Reata Pharmaceuticals, Inc., priority 2008, dated 2013).
Like-named read-outs stand apart in the source and are kept apart here.

What was measured:
[1] = test system: NO production in RAW264.7 macrophages; experiment: Inhibition of NO production in IFNγ-treated RAW264.7 macrophages (Griess reagent); format: cell-based, mouse; details: then 20 ng/ml IFNγ for 24 hours
Protocol: (§1) FIGS. 1-4, 6 and 8. Inhibition of NO Production. RAW264.7 macrophages were pre-treated with DMSO or drugs at various concentrations (nM) for 2 hours, then treated with 20 ng/ml IFNγ for 24 hours. NO concentration in media was determined using a Griess reagent system; cell viability was determined using WST-1 reagent.
(§2) Nitric Oxide production and cell viability. RAW264.7 macrophages were pre-treated with DMSO or drugs for 2 hours, then treated with recombinant mouse IFNγ (Sigma) for 24 hours. NO concentration in media was determined using the Griess reagent system (Promega). Cell viability was determined using WST-1 reagent (Roche).

RAW264.7 macrophages = experiment: Cell viability of RAW264.7 macrophages (WST-1 reagent); format: cell-based, mouse; details: cell viability, RAW264.7, 20 ng/ml IFNγ 24 hours, WST-1 reagent, read-out: RAW264.7 (20 ng/ml IFNγ) WST-1 IC50
Protocol: as §1, §2

[2] = Mus musculus, RAW264.7, RAW264.7 macrophages pre-treated 2 hours

| SMILES | IC50 [1, 2] [nM] | IC50 (RAW264.7 macrophages; Mus musculus, RAW264.7, 24 h) [nM] | IC50 ([1]; RAW264.7 macrophages pre-treated 2 hours) [nM] | IC50 (RAW264.7 macrophages) [nM] |
| --- | --- | --- | --- | --- |
| CC1(C)CC[C@]2(COP(=O)(O)O)CC[C@]3(C)[C@H](C(=O)C[C@@H]4[C@@]5(C)C=C(C#N)C(=O)C(C)(C)[C@@H]5CC[C@]43C)[C@@H]2C1 [Compound 63269, ((4aS,6aR,6bR,8aR,12aR,12bR,14aR,14bS)-11-cyano-2,2,6a,6b,9,9,12a-heptamethyl-10,14-dioxo-1,2,3,4,4a,5,6,6a,6b,7,8,8a,9,10,12a,12b,13,14,14a,14b-icosahydropicen-4a-yl)methyl dihydrogen phosphate] | > 200 | > 200 |  |  |
| CC1(C)CC[C@]2(CNCC(F)(F)F)CC[C@]3(C)[C@H](C(=O)C[C@@H]4[C@@]5(C)C=C(C#N)C(=O)C(C)(C)[C@@H]5CC[C@]43C)[C@@H]2C1 [Compound 63273, (4aR,6aR,6bR,8aS,12aS,12bR,14aR,14bR)-4,4,6a,6b,11,11,14b-heptamethyl-3,13-dioxo-8a-((2,2,2-trifluoroethylamino)methyl)-3,4,4a,5,6,6a,6b,7,8,8a,9,10,11,12,12a,12b,13,14,14a,14b-icosahydropicene-2-carbonitrile] | ~80 | ~200 |  |  |
| CC1(C)CC[C@]2([C@@H]3CO3)CC[C@]3(C)[C@H](C(=O)C[C@@H]4[C@@]5(C)C=C(C#N)C(=O)C(C)(C)[C@@H]5CC[C@]43C)[C@@H]2C1 [Compound 63275, (4aR,6aR,6bR,8aS,12aS,12bR,14aR,14bR)-4,4,6a,6b,11,11,14b-heptamethyl-8a-((R)-oxiran-2-yl)-3,13-dioxo-3,4,4a,5,6,6a,6b,7,8,8a,9,10,11,12,12a,12b,13,14,14a,14b-icosahydropicene-2-carbonitrile] | ~15 | > 200 |  |  |
| CC1(C)CC[C@]2(CN3C(=O)c4ccccc4C3=O)CC[C@]3(C)[C@H](C(=O)C[C@@H]4[C@@]5(C)C=C(C#N)C(=O)C(C)(C)[C@@H]5CC[C@]43C)[C@@H]2C1 [Compound 63276, (4aR,6aR,6bR,8aS,12aS,12bR,14aR,14bR)-8a-((1,3-dioxoisoindolin-2-yl)methyl)-4,4,6a,6b,11,11,14b-heptamethyl-3,13-dioxo-3,4,4a,5,6,6a,6b,7,8,8a,9,10,11,12,12a,12b,13,14,14a,14b-icosahydropicene-2-carbonitrile] | ~50 | ~150 |  |  |
| CC1(C)CC[C@]2([C@H]3COCO3)CC[C@]3(C)[C@H](C(=O)C[C@@H]4[C@@]5(C)C=C(C#N)C(=O)C(C)(C)[C@@H]5CC[C@]43C)[C@@H]2C1 [Compound 63285, (4aR,6aR,6bR,8aS,12aS,12bR,14aR,14bR)-8a-((S)-1,3-dioxolan-4-yl)-4,4,6a,6b,11,11,14b-heptamethyl-3,13-dioxo-3,4,4a,5,6,6a,6b,7,8,8a,9,10,11,12,12a,12b, 13,14,14a,14b-icosahydropicene-2-carbonitrile] | ~15 | > 200 |  |  |
| CC1(C)CC[C@]2(C[S+]([O-])c3ccccc3)CC[C@]3(C)[C@H](C(=O)C[C@@H]4[C@@]5(C)C=C(C#N)C(=O)C(C)(C)[C@@H]5CC[C@]43C)[C@@H]2C1 (stereo partly drawn) [Compound 63288, (4aR,6aR,6bR,8aS,12aS,12bR,14aR,14bR)-4,4,6a,6b,11,11,14b-heptamethyl-3,13-dioxo-8a-(phenylsulfinylmethyl)-3,4,4a,5,6,6a,6b,7,8,8a,9,10,11,12,12a,12b,13,14,14a,14b-icosahydropicene-2-carbonitrile] |  |  | ~25 | ~200 |
| CC1(C)CC[C@]2(COC(=O)C(F)(F)F)CC[C@]3(C)[C@H](C(=O)C[C@@H]4[C@@]5(C)C=C(C#N)C(=O)C(C)(C)[C@@H]5CC[C@]43C)[C@@H]2C1 [Compound 63294, ((4aS,6aR,6bR,8aR,12aR,12bR,14aR,14bS)-11-cyano-2,2,6a,6b,9,9,12a-heptamethyl-10,14-dioxo-1,2,3,4,4a,5,6,6a,6b,7,8,8a,9,10,12a,12b,13,14,14a,14b-icosahydropicen-4a-yl)methyl 2,2,2-trifluoroacetate] | ~9 | > 200 |  |  |
